Reference: PubChem BioAssay AID1963829 (Molecular Pharmacology Branch, DTP, NCI, 2024)

Tested on: 935938-334-R-J1-PDC complex spheroid viability
Experiment: Anticancer human tumor 935938-334-R-J1-PDC patient-derived small intestine adenocarcinoma cell line growth inhibition [POLQ]
Conditions: for IC50: curve of first compound; for viability, T/C: stronger effect = lower value
Description: Multicellular complex tumor spheroid response to Polymerase (POL) inhibitors (novobiocin, ART-558, RP6685) in combination with a variety of drugs and investigational agents in selected tumor cell lines
The POL inhibitors (novobiocin, ART-558, and RP6685) were evaluated both individually and in combination with standard of care and investigational anticancer small molecules within a complex spheroid model of solid tumors. . Complex spheroids include a stromal component modeled by human endothelial cells (HUVEC) and fibroblasts modeled by human mesenchymal stem cells (MSCs). The concentration ranges selected for each drug and investigational agent were based upon clinically achievable concentrations if the clinical Cmax of the agent was known.
Compounds. The drugs and investigational agents: novobiocin (NSC847541), ART-558 (NSC835418), RP-6685 (NSC848927), peposertib (NSC802822), ceralasertib (NSC780249), elimusertib (NSC800525), camonsertib (NSC841442), AZD-1390 (NSC803789), olaparib (NSC753686), talazoparib (NSC767125), rucaparib (NSC756644), sotorasib (NSC818433), MRTX-1133 (NSC836407), SN-38 (NSC673596), topotecan (NSC609699), epotoside (NSC141540), doxorubicin (NSC123127), gemcitabine (NSC613327), 5-fluorouracil (NSC19893), paclitaxel (NSC125973), vemurafenib (NSC761431), MSA-2 (NSC828583), SN-011 (NSC837082), adavosertib (NSC754352), prexasertib (NSC758257), carboplatin (NSC241240) and oxaliplatin (NSC266046), were obtained from the National Cancer Institute (NCI) Developmental Therapeutics Program Chemical Repository (21). The FDA-approved anticancer drug set is available from the Developmental Therapeutics Program at https://dtp.cancer.gov/organization/dscb/obtaining/. […] The stock solutions were prepared in dimethyl sulfoxide (DMSO, Sigma-Aldrich, St. Louis, MO, cat. D2650), except for the platinum compounds which were prepared in saline (Quality Biological, Gaithersburg, MD, cat. 114-055-101), at 800-fold the tested concentration and stored at -70 degrees C prior to their use. All drugs and investigational agents were tested over a range starting from a high concentration at or near the clinical Cmax and decreasing in half-log increments. If the clinical Cmax for an agent had not been determined, the highest concentration tested was 10 microM, except for SN-38, which was tested at a high concentration of 1 microM.
Cell Culture. All cells were maintained in an incubator at 37 degrees C and 5% CO2 with 95% humidity. The PDC lines were cultured according to standard operating procedures established by the NCI PDMR (https://pdmr.cancer.gov). Table 3 of the manuscript, lists the cell lines along with the number of the three cell types plated to form the mct-spheroids and media for tumor cell growth. After thawing, all PDC lines, except 997537-175-T-J1-PDC and 415267-285-R-J2-PDC, were cultured in Matrigel-coated flasks prepared with a working solution of 1X Ham's F-12 nutrient mix, without supplementation (Thermo Fisher Scientific, cat. 11765054), 100 U/mL penicillin-streptomycin (Thermo Fisher Scientific, cat. 15140122), and 2.5% Matrigel (Corning Inc., Corning, NY, cat. 354248) for the first three passages. The two PDC lines 997537-175-T-J1-PDC and 415267-285-R-J2-PDC were cultured on uncoated flasks. The 857933-349-R-J2-PDC line was cultured in 6C/Colon 1B media containing advanced DMEM/F-12 (Thermo Fisher Scientific, cat. 12634028), 10 mM HEPES (Thermo Fisher Scientific, cat. 15630080), 1X GlutaMAX supplement (Thermo Fisher Scientific, cat. 35050061), 0.1 mg/mL primocin (InvivoGen, San Diego, CA, cat. ant-pm-2), 10% defined fetal bovine serum, heat inactivated (HyClone Laboratories Inc., Logan, UT, cat. SH30070.03HI), 50% L-WRN conditioned media (ATCC, cat. CRL-3276), 1.25 mM N-Acetyl-L-cysteine (Sigma-Aldrich, cat. A9165), 10 mM nicotinamide (Sigma-Aldrich, cat. N0636), 1X B-27 supplement (Thermo Fisher Scientific, cat. 17504044), 1X N-2 supplement (Thermo Fisher Scientific, cat. […]
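Note: spheroids exposed to drugs for seven days before viability read.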
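Throughout, for viability, T/C: 100% = DMSO vehicle control wells.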

O=C(Nc1ccc(O)c(NS(=O)(=O)c2ccc(F)cc2)c1)c1ccc(-c2ccccc2)cc1 + Nc1ccc(C#CCN(C(=O)Cc2ncc(C(F)(F)F)cc2C(F)(F)F)c2ccc(F)cc2)nn1
IC50 (second compound 0.0316 µM): > 10 µM
IC50 (second compound 0.1 µM): > 10 µM
IC50 (second compound 0.316 µM): > 10 µM
IC50 (second compound 1 µM): > 10 µM
IC50 (second compound 3.16 µM): > 10 µM
IC50 (second compound 10 µM): 7.74 µM
viability, T/C (second compound 0.0316 µM, first compound 0.0316 µM): 107%
viability, T/C (second compound 0.0316 µM, first compound 0.1 µM): 120%
viability, T/C (second compound 0.0316 µM, first compound 0.316 µM): 108%
viability, T/C (second compound 0.0316 µM, first compound 1 µM): 89.2%
viability, T/C (second compound 0.0316 µM, first compound 3.16 µM): 81.7%
viability, T/C (second compound 0.0316 µM, first compound 10 µM): 64.6%
viability, T/C (second compound 0.1 µM, first compound 0.0316 µM): 91.9%
viability, T/C (second compound 0.1 µM, first compound 0.1 µM): 83.1%
viability, T/C (second compound 0.1 µM, first compound 0.316 µM): 91.3%
viability, T/C (second compound 0.1 µM, first compound 1 µM): 106%
viability, T/C (second compound 0.1 µM, first compound 3.16 µM): 104%
viability, T/C (second compound 0.1 µM, first compound 10 µM): 79%
viability, T/C (second compound 0.316 µM, first compound 0.0316 µM): 112%
viability, T/C (second compound 0.316 µM, first compound 0.1 µM): 92.9%
viability, T/C (second compound 0.316 µM, first compound 0.316 µM): 96.8%
viability, T/C (second compound 0.316 µM, first compound 1 µM): 110%
viability, T/C (second compound 0.316 µM, first compound 3.16 µM): 112%
viability, T/C (second compound 0.316 µM, first compound 10 µM): 67.2%
viability, T/C (second compound 1 µM, first compound 0.0316 µM): 83.1%
viability, T/C (second compound 1 µM, first compound 0.1 µM): 105%
viability, T/C (second compound 1 µM, first compound 0.316 µM): 114%
viability, T/C (second compound 1 µM, first compound 1 µM): 126%
viability, T/C (second compound 1 µM, first compound 3.16 µM): 112%
viability, T/C (second compound 1 µM, first compound 10 µM): 59.4%
viability, T/C (second compound 3.16 µM, first compound 0.0316 µM): 91.8%
viability, T/C (second compound 3.16 µM, first compound 0.1 µM): 98%
viability, T/C (second compound 3.16 µM, first compound 0.316 µM): 111%
viability, T/C (second compound 3.16 µM, first compound 1 µM): 101%
viability, T/C (second compound 3.16 µM, first compound 3.16 µM): 116%
viability, T/C (second compound 3.16 µM, first compound 10 µM): 70.9%
viability, T/C (second compound 10 µM, first compound 0.0316 µM): 127%
viability, T/C (second compound 10 µM, first compound 0.1 µM): 85.6%
viability, T/C (second compound 10 µM, first compound 0.316 µM): 101%
viability, T/C (second compound 10 µM, first compound 1 µM): 94.5%
viability, T/C (second compound 10 µM, first compound 3.16 µM): 99.5%
viability, T/C (second compound 10 µM, first compound 10 µM): 35.9%
